# Reference: US20250092353A1, “COMMENSAL FUNGUS AND USES THEREOF” (YEDA RESEARCH AND DEVELOPMENT CO. LTD., priority 2022, published 2025)
# Tested on: C. albicans SC5314 (ENO1-GFP)
# Assay: In vivo competition with C. albicans in germ-free animals
# Parameters: species or system mice
# Conditions: oral mixture of the two fungi
# Excerpt: FIGS. 3A-3M include fluorescent micrographs, graphs, and a scheme, showing K. weizmannii competition with C. albicans in colonized animals. (3A) A representative picture of a far-red fluorescent reporter Kazachstania strain (K. weizmannii ENO1-Mirf). (3B-C) Recoverable fecal K. weizmannii in colonized wild-type animals (without antibiotics) one and six months after single oral K. weizmannii ENO1-Mirf inoculation. (3D) Flow cytometric analysis of C. albicans SC5314 (ENO1-GFP), K. weizmannii (ENO1-Mirf), and mixed cultures used for oral inoculation (3E). […] Quantification (n=3-5 mice per group, 4 independent experiments) (see (3D). (3H) Schematic non-limiting outline of a co-housing experiment. (3I) Representative flow cytometric feces analysis of colonized mice 4 weeks after initial colonization (before cohousing) and 2 weeks after co-housing. (N=4 per group). (3J) Percentages of respective labelled fungi in feces of C. albicans, K. weizmannii colonized animals, before and after co-housing in Abx presence (except for day 48 and 58); antibiotics withdrawal on day 46 of cohousing, n=4 per group, representative of 2 independent experiments. (3K) Flow cytometric analysis of feces of germfree animals 1 week after oral inoculation of single fungi cultures or mixed C. albicans SC5314 (ENO1-GFP)/K. weizmannii (ENO1-Mirf) culture. […]
substance,measurement,value
Kazachstania weizmannii [K. weizmannii],C. albicans colonization after co-inoculation,prevented efficient C. albicans colonization
